Data from the supplement of paper PMC4862054.

Legend:
Details in all cases: incubation time: 72 h
[1] = system: CAL-120; test: normalised viability (% of control), CellTiter-Blue; higher = more viable cells (100 = DMSO, 0 = benzethonium chloride kill control)
Summary of the method: (§1)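 Each entry is normalised viability at a single listed concentration within a series. It comes from breast cancer cell lines incubated 72 h with compound in 384-well plates, then measured with CellTiter-Blue fluorescence at 560/590 nm. Every plate was normalised between vehicle (100) and a positive kill control (0).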

[2] = system: CAL-148; test: as above
Summary of the method: as §1

[3] = system: BT-474; test: as above
Summary of the method: as §1

[4] = system: HCC1937; test: as above
Summary of the method: as §1

[5] = system: DU-4475; test: as above
Summary of the method: as §1

[6] = system: BT-549; test: as above
Summary of the method: as §1

[7] = system: CAL-85-1; test: as above
Summary of the method: as §1

[8] = system: MDA-MB-231; test: as above
Summary of the method: as §1

[9] = system: SK-BR-3; test: as above
Summary of the method: as §1

[10] = system: HCC1143; test: as above
Summary of the method: as §1

[11] = system: MFM-223; test: as above
Summary of the method: as §1

[12] = system: HCC1599; test: as above
Summary of the method: as §1

[13] = system: MDA-MB-468; test: as above
Summary of the method: as §1

[14] = system: HDQ-P1; test: as above
Summary of the method: as §1

[15] = system: MDA-MB-453; test: as above
Summary of the method: as §1

[16] = system: MDA-MB-436; test: as above
Summary of the method: as §1

[17] = system: CAL-51; test: as above
Summary of the method: as §1

[18] = system: Hs578T; test: as above
Summary of the method: as §1

[19] = system: CAL-120; test: normalised response (% of control), CellTiter-Glo; higher = more viable cells (100 = DMSO, 0 = benzethonium chloride kill control)
Summary of the method: (§2)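 A 20 µl suspension of breast cancer cells was seeded into each well of 384-well plates containing compound at 5 concentrations in 10-fold steps over a compound-specific 10,000-fold range. After 72 h incubation, CellTox Green fluorescence (485/520 nm) was read first, and CellTiter-Glo luminescence was read after 10 min at room temperature. Each plate was normalised against 0.1 % DMSO (100) and a positive kill control (0), and each value is the normalised signal at one concentration.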

[20] = system: CAL-148; test: as above
Summary of the method: as §2

[21] = system: BT-474; test: as above
Summary of the method: as §2

[22] = system: HCC1937; test: as above
Summary of the method: as §2

[23] = system: DU-4475; test: as above
Summary of the method: as §2

[24] = system: BT-549; test: as above
Summary of the method: as §2

[25] = system: CAL-85-1; test: as above
Summary of the method: as §2

[26] = system: MDA-MB-231; test: as above
Summary of the method: as §2

[27] = system: SK-BR-3; test: as above
Summary of the method: as §2

[28] = system: HCC1143; test: as above
Summary of the method: as §2

[29] = system: MFM-223; test: as above
Summary of the method: as §2

[30] = system: MCF-10A; test: as above
Summary of the method: as §2

[31] = system: HCC1599; test: as above
Summary of the method: as §2

[32] = system: MDA-MB-468; test: as above
Summary of the method: as §2

[33] = system: HDQ-P1; test: as above
Summary of the method: as §2

[34] = system: MDA-MB-453; test: as above
Summary of the method: as §2

[35] = system: MDA-MB-436; test: as above
Summary of the method: as §2

[36] = system: CAL-51; test: as above
Summary of the method: as §2

[37] = system: Hs578T; test: as above
Summary of the method: as §2

Structure (SMILES) | normalised viability [1] | normalised viability [2] | normalised viability [3] | normalised viability [4] | normalised viability [5] | normalised viability [6] | normalised viability [7] | normalised viability [8] | normalised viability [9] | normalised viability [10] | normalised viability [11] | normalised viability [12] | normalised viability [13] | normalised viability [14] | normalised viability [15] | normalised viability [16] | normalised viability [17] | normalised viability [18] | normalised response [19] | normalised response [20] | normalised response [21] | normalised response [22] | normalised response [23] | normalised response [24] | normalised response [25] | normalised response [26] | normalised response [27] | normalised response [28] | normalised response [29] | normalised response [30] | normalised response [31] | normalised response [32] | normalised response [33] | normalised response [34] | normalised response [35] | normalised response [36] | normalised response [37]
Cn1cnc2c(F)c(Nc3ccc(Br)cc3F)c(C(=O)NOCCO)cc21 [MEK-162] (0.1 nM) | 83.7% | 111% | 122% | 105% | 106% | 105% | 91.2% | 116% | 102% | 112% | 92.1% | 108% | 104% | 102% | 100% | 104% | 109% | 125% | 103% | 96.2% | 104% | 94.4% | 98.6% | 98.5% | 100% | 101% | 103% | 94.3% | 101% | 105% | 114% | 108% | 99.2% | 115% | 97.9% | 93.5% | 94.3%
COc1ccc(C2=N[C@@H](c3ccc(Cl)cc3)[C@@H](c3ccc(Cl)cc3)N2C(=O)N2CCNC(=O)C2)c(OC(C)C)c1 [Nutlin-3] (1 nM) | 78.7% | 104% | 110% | 71.5% | 82.5% | 107% | 90.5% | 101% | 95.6% | 89.8% | 89.4% | 91.6% | 92.8% | 89% | 102% | 101% | 96.3% | 95.9% | 94.6% | 115% | 99.8% | 103% | 106% | 97.7% | 102% | 105% | 106% | 103% | 101% | 101% | 104% | 98.6% | 105% | 114% | 119% | 84.8% | 103%
CC(C)(C)c1cc(NC(=O)Nc2ccc(-c3cn4c(n3)sc3cc(OCCN5CCOCC5)ccc34)cc2)no1 [Quizartinib] (0.1 nM) | 99.7% | 105% | 115% | 109% | 117% | 92.8% | 89.4% | 105% | 90.9% | 99.6% | 81.8% | 89.4% | 92.3% | 74.7% | 113% | 98.1% | 103% | 120% | 103% | 110% | 108% | 103% | 104% | 96.2% | 110% | 106% | 109% | 100% | 108% | 101% | 112% | 107% | 99.5% | 105% | 101% | 87.7% | 99.8%
